According to PubChem BioAssay AID179 (DTP/NCI, 2004):
Values joined by “and” are separate entries in the source; they are usually repeats but may differ in a detail not shown here. Equal entries are not always repeated. Active and inactive are the calls of the source.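 The calls were made as follows: active = compounds giving half or more protection of infected cells from virus-caused growth loss, again on retest; inactive = the rest.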

Test system: CEM cells HIV-1 protection, formazan growth assay
Assay: NCI AIDS Antiviral Assay
Settings: for IC50: measured here: growth of uninfected CEM cells
Summary of the method: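 Human CEM cells, uninfected and HIV-1-infected, exposed to five drug concentrations; growth measured by soluble formazan assay and scored as percent protection from infection, with protecting compounds retested.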

Row | Compound | outcome | EC50 [µM] | IC50
1 | C=C=C(C(=O)OC)S(=O)c1ccccc1[N+](=O)[O-] (stereo not given) | inactive | – | –
2 | CSc1c(S(C)=O)c2ccccc2n1C (stereo not given) | – | > 200 | > 200 µM
3 | CCC1(CC)C(=O)NN(C(=O)c2ccc(Cl)cc2)C1=O | – | > 200 | > 200 µM
4 | CSC1=N/C(=C\c2ccc(C)cc2)C(=O)N1 | – | > 200 | 178 µM
5 | O=C(NCCc1c[nH]c2ccccc12)C1CC1 | – | > 200 | 110 µM
6 | O=C1/C(=C/c2ccc(Br)s2)NC(=S)N1c1ccccc1 | – | > 200 | 95.5 µM
7 | Cc1cc(-c2ccc(C(=O)C(Cl)(Cl)Cl)[nH]2)on1 | – | > 200 | 17.8 µM
8 | CCOC(=O)C/C(C)=N\NS(=O)(=O)c1ccc(N)cc1 | – | > 417 | > 417 µM
9 | O=c1c2ccccc2nc(-c2ccccc2)n1NC(=S)Nc1ccc(Cl)cc1[N+](=O)[O-] | – | > 15.8 | > 15.8 µM
10 | CCc1cc[c]([Sb](=[O])([OH])[OH])cc1 | inactive | – | –
11 | CCN(CC)CCOc1ccc(/C(C#N)=C/c2ccc(C(F)(F)F)cc2)cc1 | – | > 20 | 1.23 µM
12 | CCN(CC)CCNc1ccc2ncn3c4c(OC)ccc(=O)c4c(O)c1c23 | – | > 50.1 | 0.0219 µM
13 | NNS(=O)(=O)c1ccc(OCC(=O)O)cc1 | – | > 200 | 182 µM
14 | CN1CCN(C2=Nc3ccccc3Cc3ccccc32)CC1 | – | > 170 | 64.6 µM
15 | CC12CCCCC1=[N+]([O-])C(C)(C)N2O (stereo not given) | – | > 200 | > 200 µM
16 | Cc1ccc(C(=O)/C=C/c2ccccc2Cl)cc1 | – | > 5.62 | > 5.62 µM
17 | Cc1cc(N(CCC#N)CCC#N)ccc1/C(N=Nc1ccccc1)=N\NC(=O)c1ccccc1 | – | > 200 | 13.8 µM
18 | Clc1ccccc1/C=C1\c2ccccc2-c2nc3ccccc3nc21 | – | > 200 | > 200 µM
19 | COC1=C(OC)CCC(/C(C#N)=C/c2ccc(OC)c(OC)c2)=C1 | – | > 41.7 | 21.4 µM
20 | Fc1ccc(/C=C2\COCC3=C2NC(=S)NC3c2ccc(F)cc2)cc1 (stereo not given) | inactive | – | –
21 | O=[N+]([O-])c1cc([N+](=O)[O-])c(C(Cl)C(Cl)c2ccccc2)cc1C(Cl)C(Cl)c1ccccc1 (stereo not given) | – | > 5.25 | > 5.25 µM
22 | COc1cc2c(cc1O)-c1oncc1CCC2 | – | > 77.6 | > 77.6 µM
23 | O=C(NCCCNC(=O)c1ccccc1O)c1ccccc1O | – | > 200 | 69.2 µM

Row | Compound | outcome | EC50 [µM] | IC50
24 | CCn1c(=O)c2nc(SC)sc2n(-c2ccccc2)c1=O | – | > 200 | > 200 µM
25 | C(=C\c1csnn1)/c1cccnc1 | – | > 316 | 182 µM
26 | Oc1ccc(S)cc1CNC1CCCCC1 | – | > 200 | 13.2 µM
27 | COc1ccc(NS(=O)c2cccc(C)c2)cc1 (stereo not given) | – | > 200 | 11.2 µM
28 | O=C1CCC(=O)c2sccc2N1 | – | > 1380 | > 1380 µM
29 | O=c1oc2c(O)c(O)cc3c(=O)oc4c(O)c(O)cc1c4c23 | – | > 66.1 | 42.7 µM
30 | O=C(O)C(CS)Nc1c2ccccc2nc2ccccc12 (stereo not given) | inactive | – | –
31 | C(#CC[P+](c1ccccc1)(c1ccccc1)c1ccccc1)C[P+](c1ccccc1)(c1ccccc1)c1ccccc1 | – | > 200 | 36.3 µM
32 | O=C(O)C1(Cc2ccccc2)Cc2cc3c(cc2C1)CCC3 | – | > 200 | 93.3 µM
33 | O=C1CNCCNCC(=O)Nc2ccccc2-c2ccccc2N1 | inactive | – | –
34 | Clc1ccc(CNc2nc3ccccc3nc2-c2cccs2)c(Cl)c1 | – | > 9.77 | > 9.77 µM
35 | O=C(COc1ccc2c(=O)cc(-c3ccc(Cl)cc3)oc2c1)N1CCN(c2ccccc2)CC1 | – | 0.813 | 20.9 µM
36 | CCCC(C(=O)Nc1cccc2[nH]cnc12)C(=O)OCC (stereo not given) | – | > 200 | 158 µM
37 | CC(C)(C)OC(=O)c1ccc(NCc2cc(O)ccc2O)cc1 | – | > 200 | 3.16 µM
38 | CCSc1[nH]c(Nc2nc(-c3ccccc3)n(-c3ccccc3)n2)c(C(N)=O)c1C(N)=O | inactive | – | –
39 | Nc1nc2ccc(Sc3ccc4nc(N)[nH]c(=O)c4c3)cc2c(=O)[nH]1 | – | > 100 | > 100 µM
40 | Cc1ccc(S(=O)(=O)N2CCc3cc(O)c([N+](=O)[O-])cc32)cc1 | – | > 200 | > 200 µM
41 | CC1(C)C(O)c2ccccc2OC1N1CCN(C2Oc3ccccc3C(O)C2(C)C)CC1 (stereo not given) | – | > 200 | > 200 µM
42 | CC[CH2][Sn]([CH2]CC)([O]C(=O)Cc1ccc(F)cc1)[O][Sn]([CH2]CC)([CH2]CC)[O]C(=O)Cc1ccc(F)cc1 | – | > 5.13 | 3.24 µM
43 | Cn1c(=O)nc2n(-c3cccc(F)c3)c3ccccc3nc-2c1=O | inactive | – | –
44 | Nc1ccc(C2=NC(C(=O)O)C=C2)cc1 (stereo not given) | – | > 200 | > 200 µM
45 | COC1(c2cccs2)OC(=O)c2c([N+](=O)[O-])cccc21 (stereo not given) | inactive | – | –
46 | O=C1[C@H]2ON(c3ccccc3)C(c3ccc(Cl)cc3)[C@H]2C(=O)N1c1ccc(Cc2ccc(N3C(=O)[C@@H]4ON(c5ccccc5)C(c5ccc(Cl)cc5)[C@@H]4C3=O)cc2)cc1 (stereo not given in full) | – | > 6.31 | > 6.31 µM

Row | Compound | outcome | EC50 [µM] | IC50
47 | Cc1ccc(/C(C#N)=C/c2ccccc2)cc1 | – | > 200 | 28.8 µM
48 | O=C(c1ccccc1)C(c1ccccc1)C1(O)C(=O)Nc2c(Cl)ccc(Cl)c21 (stereo not given) | – | > 17.4 | > 17.4 µM
49 | COc1cccc(Oc2c(O)c3ccc(OC)cc3oc2=O)c1 | – | > 200 | 141 µM
50 | CC[C@H](CCCCC1CC[C@@H]2CC(=O)C[C@H]12)OC (stereo not given in full) | – | > 200 | > 200 µM
51 | Cc1cn(C2CCC(/C=N\O)O2)c(=O)[nH]c1=O (stereo not given) | – | > 200 | > 200 µM
52 | c1ccc2c(c1)nc1n2CSC1 | inactive | – | –
53 | CC1=NN(C(=O)CC(=O)Nc2cccc(Cl)c2)C(=O)C1N=Nc1ccc(S(N)(=O)=O)cc1 (stereo not given) | – | > 55 | > 55 µM
54 | CP(C)CC[PH+](CC[PH+](C)C)CC[PH+](C)C.[C-]#[O+].[C-]#[O+].[W] | inactive | – | –
55 | CCCn1c(=O)c2ccccc2[n+]2c(-c3ccc([N+](=O)[O-])cc3)csc12 | – | > 200 | > 100 µM
56 | Nc1nc(NCC2(CO)CC2)cc(=O)[nH]1 | – | > 200 | > 200 µM
57 | CC1(C)COC2(OC1)C1=NS(=O)(=O)CC13CCC2C3(C)C (stereo not given) | – | > 57.5 | > 57.5 µM
58 | O=Cc1c(O)c(C(=O)Nc2ccc3[nH]c(=O)[nH]c3c2)cc2ccccc12 | – | > 38.9 | > 38.9 µM
59 | [Cl][Ni+2][Cl].[NH-]CCN1CC1 | – | > 200 | 40.7 µM
60 | COC(=O)C1=C(c2ccccc2)C(O)(c2ccccc2)C(C(=O)OC)C1=O (stereo not given) | – | > 339 | 209 µM
61 | Cn1c(COC(=O)NC2CCCCC2)c(COC(=O)NC2CCCCC2)c2ccc3cc(C=O)ccc3c21 | – | > 174 | 2.19 µM
62 | Cc1ccc(NC(=O)CC2Sc3ccccc3NC2=O)c(C)c1 (stereo not given) | – | > 79.4 | 38.9 µM
63 | COc1cccc(N2C(=O)C3c4[nH]c5ccccc5c4C4CCCC4C3C2=O)c1 (stereo not given) | – | > 200 | > 200 µM
64 | C=C(C)C(C(=O)OC(c1ccccc1)c1ccccc1)N1C(=O)C(NC(=O)COc2ccccc2)C1SSC(C)(C)C (stereo not given) | – | > 200 | 72.4 µM
65 | CCCCCCCCCCn1nnc2c(=O)[nH]c(N)nc21 | – | > 200 | 52.5 µM
66 | Nc1ccc(S(=O)(=O)c2ccc(NCNC(CSSCC(NCNc3ccc(S(=O)(=O)c4ccc(N)cc4)cc3)C(=O)O)C(=O)O)cc2)cc1 (stereo not given) | – | > 200 | 112 µM
67 | CC(C)N(CC(OC(=O)OC(C)(C)C)c1cc(OCc2ccccc2)c(OCc2ccccc2)cc1[N+](=O)[O-])C(=O)OC(C)(C)C (stereo not given) | – | > 100 | 30.2 µM
68 | CCN(CC)CC/C=C1\c2ccccc2Sc2ccc(Cl)cc21 | inactive | – | –
69 | NC(=O)Cc1ncn(-c2ccccc2)n1 | – | > 200 | > 200 µM

Row | Compound | outcome | EC50 [µM] | IC50
70 | COc1ccc2nc3cc(Cl)ccc3c(Sc3ccc([N+](=O)[O-])cc3)c2c1 | – | > 4.79 | > 4.79 µM
71 | CCOc1ccc(-n2c(=O)c3nn4c(=O)n(-c5ccc(OCC)cc5)c(=O)c4nn3c2=O)cc1 | – | > 200 | > 200 µM
72 | Cc1cccc(NC(=O)/C=C/c2ccc(N(CCC#N)CCC#N)cc2C)c1 | – | > 676 | > 676 µM
73 | C1CSCCSCCS1 | – | > 39.8 | > 39.8 µM
74 | CC1(C)C(=O)C(C)(C)C1=NN | – | > 83.2 | > 83.2 µM
75 | CCC(/C(=N\Nc1c(Cl)cc(Cl)cc1Cl)c1ccccc1)n1ccnc1C (stereo not given) | inactive | – | –
76 | N#Cc1cc(Sc2ccc(N)c(C#N)c2)ccc1N | – | > 200 | 11 µM
77 | [Ni+2].c1nnc(N2CNCCNCN(c3nnc[n-]3)CNCCNC2)[n-]1 | – | > 100 | 97.7 µM
78 | c1ccc2c(c1)c1c(n2CCOCCCN2CCCCC2)CCCC1 | – | > 200 | 5.37 µM
79 | Cc1cc2nc3c4ccccc4n(C)c3nc2cc1C | – | > 7.59 | 5.25 µM
80 | COc1ccc(C2C3=C(CCCC3=O)N(c3ccccc3)C3=C2C(=O)CCC3)cc1 | – | > 200 | > 200 µM
81 | Cn1[nH]cc2ccc3nc4ccccc4c(=O)c3c21 | inactive | – | –
82 | O=C(Cc1cc[n+]([O-])cc1)C(=O)Nc1cc(Cl)c(Cl)cc1Cl | – | > 692 | 631 µM
83 | CCC(C)C(=O)c1c(O)c(C/C=C(\C)CCC=C(C)C)c(O)c2c(C(O)CC)cc(=O)oc12 (stereo not given) | – | > 200 | 1.55 µM
84 | C=CCOc1ccc(C2(c3ccc(OCC=C)cc3)C(=O)Nc3ccccc32)cc1 | – | > 200 | 44.7 µM
85 | CCOc1ccc(N=Nc2ccc3cc(/C(C)=N/NC(=O)/C(C#N)=C\c4ccc(N(CCC#N)CCC#N)cc4)c(=O)oc3c2)cc1 | – | > 200 | > 200 µM
86 | C=CN1C(=O)OC(c2ccccc2)C1c1ccccc1 (stereo not given) | – | > 93.3 | > 79.4 µM and 30.2 µM
87 | O=C(NC/C=C/Br)NC1CCNc2ccccc21 (stereo not given) | – | > 200 | 14.1 µM
88 | O=c1/c(=C/c2ccccc2F)sc2nc3ccccc3n12 | – | > 1.82 | > 1.82 µM
89 | CN(C)c1ccc(-c2nc(N)nc3c2CCCC3)cc1 | – | > 37.2 | > 37.2 µM
